Measured values published in PMC5503534, “Stable aneuploid tumors cells are more sensitive to TTK inhibition than chromosomally unstable cell lines” (Oncotarget, 2017).
Read-outs that look alike come from different tables or passages of the source.

Key:
[1] = system: LoVo colorectal adenocarcinoma cell line; settings: three day cell proliferation assay; cited from earlier work
[2] = system: HCT 116, LoVo, A-172, DoTc2 4510, MG-63, OVCAR-3 cell lines; experiment: Time-lapse microscopy, sensitive and resistant cell lines; assay type: cell-based, human; settings: 100 nM
Protocol: The activity of the mitotic checkpoint was measured by the time between the breakdown of the nuclear envelop and the onset of anaphase (Figure 2A). Under the vehicle-treated control conditions, all sensitive cells were able to accomplish a normal mitosis in approximately 35 minutes (HCT 116, 30 min; LoVo, 41 min; A172, 36 min; Figure 2A and Supplementary Figure 1). In contrast, the three resistant cell lines spent more time in mitosis, i.e., almost one hour (MG-63, 53 min), or up to 2 and 3 hours (DoTc2 4510, 122 min; OVCAR-3, 173 min).
HCT 116 diploid and tetraploids stably expressed green fluorescent protein-tagged histone 2B (H2B-GFP). All other cell lines were pre-incubated with SiR-DNA (Spirochrome, Switzerland) in order to visualize DNA. Cells were cultured in Leibovitz L15 CO2-independent cell culture medium in 6-well glass bottom chamber (LabTek Corp., Australia) and synchronized by treatment with 2 mM thymidine. After 24 hours of synchronization, and 4 hours before the start of the imaging experiment, medium was replaced by medium without thymidine. […] Image Z-stacks were acquired with 3-μm intervals using a sCMOS camera (DeltaVision RT; Applied Precision, GE Healthcare, Issaquah, WA) and processed using ImageJ software (NIH, Bethesda, MD, USA). Chromosome mis-segregation phenotypes co-occurred and many combinations existed. For clarity, all the events were scored and included: more than two phenotypes, mitotic slippage, DNA bridge, micro-nuclei and multipolar spindle.

full-length Aurora B = target: T1, full-length Aurora B (Homo sapiens, UniProt Q96GD4); experiment: Surface plasmon resonance binding kinetics, Aurora B; settings: SPR
T1 construct: to the kinase domain of TTK and full-length Aurora B; purchased Carna Biosciences, Inc., Kobe, Japan; host or cells: Sf9 insect cells
From the text: Originally, the compound was identified in a phenotypic screen for molecules that can induce stem-cell like phenotypes. Later this property was attributed to its ability to inhibit the mitotic kinase Aurora B [39].

[3] = system: patient-derived colorectal carcinoma organoids; experiment: Organoids drug sensitivity and viability assay; assay type: cell-based, human
Protocol: The establishment and characterization of the human colon cancer organoids has been described. The organoids were cultured in drops of Geltrex LDEV-Free Reduced Growth Factor Basement Membrane Matrix (Gibco, cat no. A1413202) in DMEM/F12 medium (Thermo), supplemented with 1% (v/v) penicillin/streptomycin (Gibco), 1% Hepes buffer, pH7.5, 1% L-glutamine (Gibco), 1 μg/mL R-spondin (Sigma), 100 ng/mL Noggin (Peprotech), B27 vitamin A-free (Invitrogen, cat no. 12587010), 1 mM n-acetyl cysteine (Sigma), 10 mM nicotinamide (Sigma), 50 ng/mL EGF (BD Biosciences), 500 nM A83-01 (Tocris), 10 μM SB202190 (Sigma), 10 μM Y-27632 (Sigma) and 10 nM Prostaglandin E2 (Cayman). Medium was refreshed every four days and organoids were splitted by treatment with TryPLE Express (Gibco, cat. no. 12604013).
Organoids were dissociated by TryPLE Express treatment and filtered using a 40 μm nylon cell strainer (Falcon). The organoids were re-suspended in Geltrex at a density of 250,000 cells/mL and seeded in the wells of 96-well plates (Corning, cat no. 3903) at 10 μl per well. Compounds were added four days after plating and 72 hours later viability was determined using Cell-Titer Glo 3D Cell Viability Assay (Promega, Madison USA). Experiments were performed in three biological replicates and technical triplicates were averaged per experiment.

[4] = system: HCT 116 vs HPT1, -2 and -4; experiment: Drug sensitivity analysis, HCT116 diploid versus tetraploids; assay type: cell-based, human
Protocol: (§1) Cell proliferation assays were carried out as described using ATPlite 1step™ (Perkin Elmer, Groningen, The Netherlands). Exposure time was 72 or 120 hours as indicated in the Legends to the Figures. Percentage growth was calculated, relative to the growth of unexposed cells, and relative IC50s were fitted using a four-parameter logistics curve (XLfit 5.3, IDBS). For Figure 4A and 7 dose response curves were redrawn in Prism. To compare the inhibitory potency of compounds in proliferation assays with HCT 116 parental and tetraploid clones, pIC50 (−^10logIC50) values were compared in three independent experiments. A two-tailed Student's t-test was performed to determine whether differences in sensitivity (ΔpIC50) were statistically significant. Caspase 3/7 activity of cancer cells was measured using Caspase-Glo 3/7 Assay kit (cat no. G8093, Promega, Madison USA). Viability of T-ALL cell samples was determined using ATPlite and exposure of 72 hours as described previously.

[5] = system: HCT 116 parental cells or tetraploids; experiment: Colony formation assay; assay type: cell-based, human; settings: pre-treated 4 days with 100 nM, reseeded
Protocol: After 4 days, the cells were washed with phosphate-buffered saline (PBS) and allowed to recover for 24 hours. The remaining cells were collected and plated at a density of 1000 cells per well in a 96-well plate. After ten days, cells were fixed with 96% methanol for 20 minutes, washed with PBS and stained with 0.1% (w/v) crystal violet over-night. Plates were washed in tap water and allowed to dry before scanning and analysis with ImageJ software (NIH, Bethesda, MD, USA).

[6] = toxicity studies in mice; cited from earlier work
[7] = system: DoTc2 4510 cervix carcinoma cell line; experiment: Cell proliferation assay (ATPlite), DoTc2 4510; assay type: cell-based, human; settings: 5 day proliferation assay
Protocol: as §1

[8] = system: A-172 glioblastoma cell line; settings: three day cell proliferation assay; cited from earlier work

T1 sequence (Q96GD4 whole entry, the tested form may be a part): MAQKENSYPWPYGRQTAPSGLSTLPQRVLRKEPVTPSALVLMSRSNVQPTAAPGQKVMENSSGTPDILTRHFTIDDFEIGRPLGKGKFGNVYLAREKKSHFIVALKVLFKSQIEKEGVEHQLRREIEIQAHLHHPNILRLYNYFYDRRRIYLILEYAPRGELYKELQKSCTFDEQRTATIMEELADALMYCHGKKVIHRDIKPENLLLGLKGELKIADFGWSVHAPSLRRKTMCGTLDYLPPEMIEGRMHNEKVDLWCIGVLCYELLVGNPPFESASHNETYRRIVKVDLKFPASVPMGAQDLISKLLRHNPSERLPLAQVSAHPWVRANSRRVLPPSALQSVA

CCc1cccc(CC)c1NC(=O)c1ccn2c1CCc1cnc(Nc3ccc(N4CCN(C)CC4)cc3OC)nc1-2 [NTRC 0066-0]
IC50 [1]: 0.04 µM
time-in-mitosis ([2]; all cell lines, nuclear envelope breakdown to anaphase onset): approximately 20 min
defective anaphases ([2]; resistant cell lines): 63–71%
defective anaphases ([2]; sensitive cell lines): at least 60%
Kd (full-length Aurora B; KD = kd/ka): 0.907 µM
ka (full-length Aurora B; geometric average): 13400 M⁻¹ s⁻¹
kd (full-length Aurora B; geometric average): 0.0122 s⁻¹
ΔpIC50 ([3]; All organoids, NTRC 0066-0 vs reversine): 1.17
pIC50 ([3]; All organoids, geometric average): 7.59
ΔpIC50 ([3]; organoid p14, NTRC 0066-0 vs reversine): 1.34
pIC50 ([3]; organoid p14, three days): 7.65
IC50 ([3]; organoid p14, three days, read-out: IC50): 0.0225 µM
pIC50 ([3]; organoid p18, three days): 7.68
IC50 ([3]; organoid p18, three days, read-out: IC50): 0.0221 µM
ΔpIC50 ([3]; organoid p28, NTRC 0066-0 vs reversine): 1.22
pIC50 ([3]; organoid p28, three days): 7.43
IC50 ([3]; organoid p28, three days, read-out: IC50): 0.037 µM
times more potent than reversine ([3]; organoids): 10 times
IC50 ([3]; organoids from three different patients, read-out: average IC50): 0.027 µM
Δeff. (%) ([4]; HCT 116 vs HPT1, -2 and -4): −33%
Phenotype (efficacy) ([4]; HCT 116 vs HPT1, -2 and -4, based on % effect): resistant
Phenotype (potency) ([4]; HCT 116 vs HPT1, -2 and -4, 'resistant' indicates that tetraploids are resistant): sensitive
ΔpIC50 ([4]; average log shift in sensitivity between parental and tetraploids): −0.01
proliferation after compound wash-out (colony formation) [5]: unable to fully resume proliferation
effect on bone marrow or blood cell count (hematological toxicity) [6]: no effect on bone marrow or blood cell count
IC50 [7]: 0.225 µM
IC50 [8]: 0.051 µM
